The results in this text go back to article PMC7764795, “Physiological Response of Corynebacterium glutamicum to Indole” (Microorganisms, 2020).

This assay has as its target T1, Cg3388 (IhtR) (Corynebacterium glutamicum, UniProt Q8NL89).
T1 construct: gene Cgl3059; Cg3388 with N-terminal His-tag kept (pET16b-cg3388), E. coli BL21(DE3), Ni-NTA
T1 sequence (Q8NL89 1-287): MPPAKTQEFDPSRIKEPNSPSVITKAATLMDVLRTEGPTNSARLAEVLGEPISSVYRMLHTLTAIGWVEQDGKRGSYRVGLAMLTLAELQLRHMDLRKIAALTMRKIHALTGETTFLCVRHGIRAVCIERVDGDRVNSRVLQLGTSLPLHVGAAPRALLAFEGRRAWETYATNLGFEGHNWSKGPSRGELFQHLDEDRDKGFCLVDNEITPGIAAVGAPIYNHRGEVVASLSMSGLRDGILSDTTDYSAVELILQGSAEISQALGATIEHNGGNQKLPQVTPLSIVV
The experiment in a line: EMSA, release of target DNA by effector. The settings on record: threshold, not a constant; Cg3388 in 153-fold molar excess over 45 ng cg3388-iolT2 intergenic DNA; pH 7.5, 10 mM MgCl2, room temperature; effector (inducer) of repressor. Type of assay: binding. In general terms: A gel shift assay detects complexes by their altered migration in electrophoresis.
Take `Oc1ccc(O)c(O)c1` [1,2,4-trihydroxybenzene]: the “concentration above which DNA binding is interfered with” value is > 0.05 mM. The value for `Oc1ccc(O)cc1` [hydroquinone] was > 0.5 mM; that for `c1ccc2[nH]ccc2c1` [indole] was > 4 mM.
